According to the supplement of paper PMC10307832:

How the values were obtained:
Test in all cases: relative viability (nuclei count vs DMSO), 5 days (fraction); higher = more cells survive
EHT 1864 + Phenformin = compound: C1COCCN1CC2=CC(=O)C(=CO2)OCCCCCSC3=C4C=CC(=CC4=NC=C3)C(F)(F)F [EHT 1864] + N=C(N)NC(=N)NCCc1ccccc1 [Phenformin] (partner 250 µM)
Outline: (§1)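 For relative viability, nuclei counts in treated wells were divided by those in vehicle wells. Lung cancer cell lines had been pin-tool dosed in 1536-well plates the day after seeding and cultured for 5 days, then fixed and stained in one step (final 0.05% Triton X-100, 1% formaldehyde, 1 ug/ml Hoechst) and imaged at 4×. Doses were one drug alone or a fixed anchor-drug dose plus five library-drug doses (not always all listed) in √10 steps, and values are duplicate-plate medians.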

EHT 1864 + Palbociclib = compound: C1COCCN1CC2=CC(=O)C(=CO2)OCCCCCSC3=C4C=CC(=CC4=NC=C3)C(F)(F)F [EHT 1864] + CC(=O)c1c(C)c2cnc(Nc3ccc(N4CCNCC4)cn3)nc2n(C2CCCC2)c1=O [Palbociclib] (partner 0.5 µM)
Outline: as §1

EHT 1864 + Decitabine = compound: C1COCCN1CC2=CC(=O)C(=CO2)OCCCCCSC3=C4C=CC(=CC4=NC=C3)C(F)(F)F [EHT 1864] + Nc1ncn([C@H]2C[C@H](O)[C@@H](CO)O2)c(=O)n1 [Decitabine] (partner 2 µM)
Outline: as §1

EHT 1864 + Pictilisib = compound: C1COCCN1CC2=CC(=O)C(=CO2)OCCCCCSC3=C4C=CC(=CC4=NC=C3)C(F)(F)F [EHT 1864] + CS(=O)(=O)N1CCN(Cc2cc3nc(-c4cccc5[nH]ncc45)nc(N4CCOCC4)c3s2)CC1 [Pictilisib] (partner 1 µM)
Outline: as §1

Cell Line | relative viability (EHT 1864 + Phenformin; first compound 0.04 µM) | relative viability (EHT 1864 + Phenformin; first compound 0.1265 µM) | relative viability (EHT 1864 + Phenformin; first compound 0.4 µM) | relative viability (EHT 1864 + Phenformin; first compound 4 µM) | relative viability (EHT 1864 + Palbociclib; first compound 0.04 µM) | relative viability (EHT 1864 + Palbociclib; first compound 0.1265 µM) | relative viability (EHT 1864 + Palbociclib; first compound 0.4 µM) | relative viability (EHT 1864 + Palbociclib; first compound 1.265 µM) | relative viability (EHT 1864 + Palbociclib; first compound 4 µM) | relative viability (EHT 1864 + Decitabine; first compound 0.04 µM) | relative viability (EHT 1864 + Decitabine; first compound 0.1265 µM) | relative viability (EHT 1864 + Decitabine; first compound 0.4 µM) | relative viability (EHT 1864 + Decitabine; first compound 1.265 µM) | relative viability (EHT 1864 + Decitabine; first compound 4 µM) | relative viability (EHT 1864 + Pictilisib; first compound 0.04 µM) | relative viability (EHT 1864 + Pictilisib; first compound 0.4 µM) | relative viability (EHT 1864 + Pictilisib; first compound 1.265 µM) | relative viability (EHT 1864 + Pictilisib; first compound 4 µM) | relative viability (EHT 1864 + Pictilisib; first compound 0.1265 µM) | relative viability (EHT 1864 + Phenformin; first compound 1.265 µM)
NCI-H2347 | 0.585 | 0.432 | 0.478 | 0.46 | 0.428 | 0.382 | 0.368 | 0.439 | 0.364 | 0.571 | 0.488 | 0.675 | 0.64 | 0.559 | 0.596 | 0.582 | 0.639 | 0.583 | – | –
NCI-H1975 | 0.406 | 0.42 | 0.407 | 0.396 | 0.641 | 0.647 | 0.4 | 0.348 | 0.552 | 0.41 | 0.411 | 0.404 | 0.384 | 0.398 | 0.304 | 0.278 | 0.269 | 0.301 | 0.305 | –
UMC-11 | 0.356 | 0.275 | – | 0.31 | 0.339 | 0.266 | 0.281 | 0.343 | 0.31 | 0.447 | 1.15 | 0.731 | 0.693 | 0.736 | 0.829 | 0.903 | 0.63 | 0.883 | 0.591 | 0.324
ABC-1 | 0.24 | 0.258 | 0.208 | 0.218 | 0.629 | 0.631 | 0.692 | 0.687 | 0.577 | 1.35 | 0.91 | 1.15 | 0.881 | 0.901 | 0.935 | 0.814 | 0.824 | 0.73 | 0.713 | 0.273
A-427 | 0.343 | 0.309 | 0.282 | 0.265 | 0.547 | 0.485 | 0.535 | 0.545 | 0.494 | 0.566 | 0.572 | 0.548 | 0.564 | 0.59 | 0.695 | 0.688 | 0.658 | 0.607 | 0.749 | 0.285
LCLC-97TM1 | 0.424 | 0.364 | 0.444 | 0.414 | 0.225 | 0.15 | 0.183 | 0.187 | 0.241 | 0.271 | 0.237 | 0.22 | 0.235 | 0.271 | 0.222 | 0.161 | 0.224 | 0.227 | – | 0.415
HCC-15 | 0.491 | – | 0.461 | 0.52 | 0.76 | – | 0.78 | 0.682 | 0.72 | 0.735 | – | 0.62 | 0.624 | 0.624 | 0.737 | 0.793 | 0.656 | 0.731 | 0.577 | 0.383
NCI-H647 | 0.589 | 0.432 | 0.561 | 0.545 | 0.414 | 0.351 | 0.451 | 0.373 | 0.375 | 0.32 | 0.288 | 0.311 | 0.453 | 0.404 | 0.56 | 0.468 | 0.325 | 0.433 | – | 0.6
SW 1573 | 0.436 | 0.34 | 0.347 | 0.382 | 0.299 | – | 0.481 | 0.416 | 0.317 | 0.655 | 0.478 | 0.463 | 0.55 | 0.339 | 0.525 | 0.462 | 0.521 | 0.511 | 0.364 | 0.334
NCI-H1651 | 0.376 | 0.358 | 0.333 | 0.334 | 0.529 | 0.501 | 0.534 | 0.504 | 0.522 | 0.55 | 0.695 | 0.631 | 0.652 | 0.594 | 0.537 | 0.555 | 0.563 | 0.492 | 0.562 | 0.345
NCI-H1792 | 0.256 | – | – | 0.368 | 0.618 | 0.694 | 0.683 | 0.626 | 0.742 | 0.506 | – | 0.515 | 0.567 | 0.601 | 0.259 | 0.27 | 0.288 | 0.348 | 0.302 | 0.304
NCI-H2023 | 0.405 | 0.417 | 0.371 | 0.347 | 0.33 | 0.318 | 0.354 | 0.382 | 0.364 | 0.213 | 0.212 | 0.223 | 0.259 | 0.176 | 0.244 | 0.223 | 0.212 | 0.271 | 0.208 | 0.358
COR-L 105 | 0.535 | 0.427 | 0.602 | 0.535 | 0.362 | 0.417 | 0.411 | 0.414 | 0.41 | 0.781 | 0.578 | 0.574 | 0.786 | 0.637 | 0.424 | 0.462 | 0.414 | 0.378 | 0.461 | 0.536
NCI-H1734 | 0.539 | – | 0.397 | 0.432 | 0.411 | 0.314 | 0.337 | 0.337 | 0.356 | 0.495 | 0.552 | 0.478 | 0.511 | 0.514 | 0.485 | 0.455 | 0.452 | 0.418 | 0.455 | 0.433
NCI-H3122 | 0.415 | 0.373 | 0.362 | 0.304 | 0.172 | 0.21 | 0.211 | 0.203 | 0.201 | 0.373 | 0.423 | 0.42 | 0.432 | 0.339 | 0.564 | 0.583 | 0.617 | 0.675 | 0.428 | 0.345
HCC-78 | 0.635 | 0.604 | 0.694 | 0.733 | 0.414 | 0.568 | 0.46 | 0.493 | 0.478 | 0.735 | 0.726 | 0.577 | 0.713 | 0.789 | 0.262 | 0.242 | 0.205 | 0.25 | 0.209 | 0.746
NCI-H2085 | 0.731 | – | 0.832 | 0.732 | 0.446 | 0.459 | 0.456 | 0.451 | 0.417 | 0.604 | 0.551 | 0.588 | 0.656 | 0.555 | 0.555 | 0.47 | 0.448 | 0.428 | 0.524 | 0.808
